According to patent US12138383B2, “Heating unit for use in a drug delivery device” (ALEXZA PHARMACEUTICALS, INC., priority 2007, dated 2024):

Columns and labels:
[1] = Aerosol purity of condensation aerosol vaporized from drug-coated substrate in substrate screening apparatus (HPLC of filter extract); assay type: physicochemical; details: heat-oxidized perforated 316 stainless steel
Text: The substrate screening apparatus 400 is made of a machined plastic (polyoxymethylene, DELRIN® Acetal Resin, DuPont, Wilmington, DE) block 402 with a 2 cm^2 cross-sectional area for mounting a substrate 412. Block 402 includes a first airway 404 extending from first inlet 414 to outlet 422. Block 402 also include a second airway 406 extending from second inlet 416 to substrate 412, where it typically joins the first airway. The substrate 412 is mounted in the substrate screening apparatus 400 across two electrodes 420. A first air flow 414 is established in first airway 404 and a second air flow 416 is established in second airway 406 such that the second air flow 416 passes from the second airway 406 to first airway 404 through holes in the substrate 412. While providing air flows 414 and 416, the substrate 412 is heated, typically by discharging a capacitor (not shown) across the substrate 412. In a one embodiment, the flow of air passing through holes in the substrate 412 is in a direction orthogonal to that of air flow 414. Substrate 412 is coated with a drug composition film. The substrate 412 is heated to vaporized all or a portion of the drug composition. The vaporized drug subsequently cools and condenses to form a condensation aerosol that is carried to the outlet by air flow 414, joined by air flow 416). Accordingly, the condensation aerosol is emitted from the outlet 422.
The test substrates were then coated with a drug composition. The drug was typically dissolved in a volatile organic solvent (e.g., dichloromethane/methanol mixture or acetone or other suitable organic solvent) and then spray-coated onto the test substrates using an automated spray coater. Coating parameters, such as the drug concentration in the coating solution, solution flow rate, were selected to obtain a uniform drug coating of the desired coating density (i.e., mass/area).
Total air flow through the substrate screening apparatus was set by providing air flows 414 and 416 at a desired ratio. (As used herein, “across” air flow refers to air flow 414 and “bottom” air flow refers to air flow 416.) Brass electrodes 420 attached to the substrate screening apparatus 400 were used to clamp the substrate 412 in place and provide electrical connections. For most experiments, a 1-Farad capacitor was used as the energy source. The capacitor was typically charged to 11-14 volts, depending on the desired substrate temperature. A high current relay was used to connect the circuit and discharge the capacitor across the substrate to induce heating and vaporization of the drug.
FIG. 5 is a schematic of another embodiment of a substrate screening apparatus 500 that was used to direct air flow through the holes of coated polyimide film (KAPTON® polyimide film) substrates (see FIGS. 2A and 2B). Substrate screening apparatus 500 is similar in configuration and operation to substrate screening apparatus 400, with the exception that substrate screening apparatus 500 includes two electrodes 502 on the same side of the screening apparatus 500, whereas substrate screening apparatus 400 includes two electrodes 420 on opposite sides of the screening apparatus 400. In the examples using polyimide film substrates described below, a polyimide film substrate coated with a drug composition was placed in substrate screening apparatus 500 across electrodes 502. A computer-controlled power supply was connected to the electrodes. The power supply was typically capable of heating the polyimide film substrate to the target temperature within 300 milliseconds, and the substrate was kept at the target temperature for a duration of 1 second.
To determine aerosol purity and emitted dose, a 2 μm Teflon filter (ZEFLUOR PTFE filters, available from Zefon International, Inc., Ocala, FL) was placed immediately downstream from the screening apparatus during aerosol generation. […]

[2] = Aerosol particle size distribution by Anderson Cascade Impactor; assay type: physicochemical; details: heat-oxidized perforated 316 stainless steel; for Average MMAD (μm): 28.3 liters/minute; for GSD / MMAD (μm): approx. 0.07 mg/cm^2, 28.3 liters/minute
Text: An Anderson Cascade Impactor (ACI), an inertial impaction size separating device, was used to determine the particle size distribution of the aerosol. The ACI consists of several stages, with each successive stage having a smaller size cutoff. By extracting and determining the mass of drug deposited at each stage, it is possible to estimate the particle size distribution of the aerosol. The ACI was placed immediately downstream from the screening apparatus. Again, the airway and substrate were extracted to determine the mass balance for each actuation of the device.

## CCCCNc1cc(C(=O)O)cc(S(N)(=O)=O)c1Oc1ccccc1 [Bumetanide, bumetanide]
[1]; 0.07 mg/cm^2, 20 liters/minute, as little as 5% of air flow through the substrate
  aerosol purity: 98%
[1]; 20 liters/minute, across:bottom 0:100
  Emitted Aerosol Purity (%): 98.5%
[1]; 20 liters/minute, across:bottom 0:100, coating density 0.08 mg/cm^2
  aerosol purity: 99.3 ± 0.1
[1]; 20 liters/minute, across:bottom 0:100, coating density 0.10 mg/cm^2
  Mean Aerosol Purity (%): 98.8%
[1]; 20 liters/minute, across:bottom 0:100, coating density 0.14 mg/cm^2
  Mean Aerosol Purity (%): 98.8%
[1]; 20 liters/minute, across:bottom 0:100, coating density 0.26 mg/cm^2
  aerosol purity: 98.9 ± 0.1
[1]; 20 liters/minute, across:bottom 0:100, coating density 0.58 mg/cm^2
  aerosol purity: 98.7 ± 0.3
[1]; 20 liters/minute, across:bottom 50:50
  Emitted Aerosol Purity (%): 98.4%
[1]; 20 liters/minute, across:bottom 50:50, coating density 0.10 mg/cm^2
  Mean Aerosol Purity (%): 98.8%
[1]; 20 liters/minute, across:bottom 50:50, coating density 0.14 mg/cm^2
  Mean Aerosol Purity (%): 98.9%
[1]; 20 liters/minute, across:bottom 90:10, coating density 0.08 mg/cm^2
  aerosol purity: 99.2 ± 0.1
[1]; 20 liters/minute, across:bottom 90:10, coating density 0.26 mg/cm^2
  aerosol purity: 98.6 ± 0.1
[1]; 20 liters/minute, across:bottom 90:10, coating density 0.58 mg/cm^2
  aerosol purity: 98.4 ± 0.3
[1]; 20 liters/minute, across:bottom 100:0
  Emitted Aerosol Purity (%): 96.4%
[1]; 20 liters/minute, across:bottom 100:0, coating density 0.08 mg/cm^2
  aerosol purity: 95.8 ± 0.6
[1]; 20 liters/minute, across:bottom 100:0, coating density 0.10 mg/cm^2
  Mean Aerosol Purity (%): 95.7%
[1]; 20 liters/minute, across:bottom 100:0, coating density 0.14 mg/cm^2
  Mean Aerosol Purity (%): 94.8%
[1]; 20 liters/minute, across:bottom 100:0, coating density 0.26 mg/cm^2
  aerosol purity: 94.8 ± 0.2
[1]; 20 liters/minute, across:bottom 100:0, coating density 0.58 mg/cm^2
  aerosol purity: 90.7 ± 0.4
[2]; coating density 0.08 mg/cm^2, across:bottom 90:10
  Average MMAD (μm): 2.2 μm
[2]; coating density 0.26 mg/cm^2, across:bottom 90:10
  Average MMAD (μm): 1.6 μm
[2]; coating density 0.58 mg/cm^2, across:bottom 0:100
  Average MMAD (μm): 0.9 μm
[2]; coating density 0.58 mg/cm^2, across:bottom 90:10
  Average MMAD (μm): 1.9 μm
[2]; coating density 0.58 mg/cm^2, across:bottom 100:0
  Average MMAD (μm): 1.7 μm
[2]; across:bottom 0:100
  GSD: 2.4 ± 0.1
  MMAD (μm): 0.4 ± 0.0 μm
[2]; across:bottom 90:10
  GSD: 2.0 ± 0.1
  MMAD (μm): 2.7 ± 0.1 μm
[2]; across:bottom 100:0
  GSD: 4.0 ± 0.5
  MMAD (μm): 3.6 ± 0.5 μm
